Reference: patent US20240423925A1, “GRANULE COMPRISING ENCAPSULATED ACTIVE INGREDIENTS” (DSM IP ASSETS B.V., priority 2021, published 2024)

Assay: Differential scanning calorimetry (DSC) of sorbitol grades
Format: physicochemical
Conditions: sorbitol grades used as binder
Description: Different grades of sorbitol were then investigated in order to further reduce the energy required to generate good water soluble granules. Samples were analyzed via differential scanning calorimetry (DSC) in order to determine the sorbitol grade with the lowest melt energy. When using sorbitol grade Xtab300S (available at Roquette®) as a binder, the energy required to generate good water-soluble granules is lower than the other grades (cf. Table below).

| Structure (SMILES) | Melt Energy [J/g] |
| --- | --- |
| OC[C@@H](O)[C@@H](O)[C@H](O)[C@@H](O)CO [Example P100C, sorbitol] | 181.9 |
| OC[C@@H](O)[C@@H](O)[C@H](O)[C@@H](O)CO [Example P300C, sorbitol] | 180.3 |
| OC[C@@H](O)[C@@H](O)[C@H](O)[C@@H](O)CO [Example P550SD, sorbitol] | 165.1 |
| OC[C@@H](O)[C@@H](O)[C@H](O)[C@@H](O)CO [Example P650C, sorbitol] | 174.9 |
| OC[C@@H](O)[C@@H](O)[C@H](O)[C@@H](O)CO [Xtab200S, sorbitol] | 161.7 |
| OC[C@@H](O)[C@@H](O)[C@H](O)[C@@H](O)CO [Xtab300S, sorbitol] | 126.5 |
